Experimental findings from paper doi:10.1101/2023.03.24.534094v2 (biorxiv, 2023) are described below.

Targets include HIPK2 (Homo sapiens, UniProt Q9H2X6); ABL1 (Homo sapiens, UniProt P00519); PAK4 (Homo sapiens, UniProt O96013).
What all share (assay): biochemical
For the next experiment, the target named is T1, Erk7 (Homo sapiens, UniProt Q8TD08).
T1 sequence (Q8TD08 1-544): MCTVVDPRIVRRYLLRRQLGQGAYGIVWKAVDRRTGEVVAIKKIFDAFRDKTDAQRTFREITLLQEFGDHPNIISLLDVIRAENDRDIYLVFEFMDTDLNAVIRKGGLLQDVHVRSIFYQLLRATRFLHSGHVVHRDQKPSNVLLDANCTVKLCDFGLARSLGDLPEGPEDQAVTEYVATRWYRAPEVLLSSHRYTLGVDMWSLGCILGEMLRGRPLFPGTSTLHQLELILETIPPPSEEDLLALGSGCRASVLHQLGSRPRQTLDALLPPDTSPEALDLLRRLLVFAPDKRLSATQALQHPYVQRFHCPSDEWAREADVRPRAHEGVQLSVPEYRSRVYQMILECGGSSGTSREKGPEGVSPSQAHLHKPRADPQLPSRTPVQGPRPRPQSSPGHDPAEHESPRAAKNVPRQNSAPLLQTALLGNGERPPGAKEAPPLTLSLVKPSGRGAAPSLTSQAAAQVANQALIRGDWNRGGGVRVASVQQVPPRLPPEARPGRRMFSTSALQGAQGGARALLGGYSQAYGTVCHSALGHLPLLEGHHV

A further experiment has as its target T2, DYRK2 (Homo sapiens, UniProt Q92630).
T2 sequence (Q92630 1-601): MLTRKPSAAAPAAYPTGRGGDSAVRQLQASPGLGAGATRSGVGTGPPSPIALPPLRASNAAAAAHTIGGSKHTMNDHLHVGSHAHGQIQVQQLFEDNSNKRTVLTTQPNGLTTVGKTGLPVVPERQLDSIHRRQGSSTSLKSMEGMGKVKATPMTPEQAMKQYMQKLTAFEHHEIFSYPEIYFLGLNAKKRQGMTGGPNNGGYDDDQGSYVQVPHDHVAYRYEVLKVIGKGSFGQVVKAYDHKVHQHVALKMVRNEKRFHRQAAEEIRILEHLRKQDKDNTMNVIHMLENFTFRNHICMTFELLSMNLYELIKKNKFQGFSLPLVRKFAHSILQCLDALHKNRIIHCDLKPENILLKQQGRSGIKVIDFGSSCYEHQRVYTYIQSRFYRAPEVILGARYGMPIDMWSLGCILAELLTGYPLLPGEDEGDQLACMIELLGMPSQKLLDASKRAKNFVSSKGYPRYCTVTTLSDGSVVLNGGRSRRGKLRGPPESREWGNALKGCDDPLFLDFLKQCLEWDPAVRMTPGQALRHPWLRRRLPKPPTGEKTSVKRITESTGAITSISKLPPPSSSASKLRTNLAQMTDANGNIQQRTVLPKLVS

For the next experiment, the target named is T3, EphB3 (Homo sapiens, UniProt P54753).
T3 sequence (P54753 1-998): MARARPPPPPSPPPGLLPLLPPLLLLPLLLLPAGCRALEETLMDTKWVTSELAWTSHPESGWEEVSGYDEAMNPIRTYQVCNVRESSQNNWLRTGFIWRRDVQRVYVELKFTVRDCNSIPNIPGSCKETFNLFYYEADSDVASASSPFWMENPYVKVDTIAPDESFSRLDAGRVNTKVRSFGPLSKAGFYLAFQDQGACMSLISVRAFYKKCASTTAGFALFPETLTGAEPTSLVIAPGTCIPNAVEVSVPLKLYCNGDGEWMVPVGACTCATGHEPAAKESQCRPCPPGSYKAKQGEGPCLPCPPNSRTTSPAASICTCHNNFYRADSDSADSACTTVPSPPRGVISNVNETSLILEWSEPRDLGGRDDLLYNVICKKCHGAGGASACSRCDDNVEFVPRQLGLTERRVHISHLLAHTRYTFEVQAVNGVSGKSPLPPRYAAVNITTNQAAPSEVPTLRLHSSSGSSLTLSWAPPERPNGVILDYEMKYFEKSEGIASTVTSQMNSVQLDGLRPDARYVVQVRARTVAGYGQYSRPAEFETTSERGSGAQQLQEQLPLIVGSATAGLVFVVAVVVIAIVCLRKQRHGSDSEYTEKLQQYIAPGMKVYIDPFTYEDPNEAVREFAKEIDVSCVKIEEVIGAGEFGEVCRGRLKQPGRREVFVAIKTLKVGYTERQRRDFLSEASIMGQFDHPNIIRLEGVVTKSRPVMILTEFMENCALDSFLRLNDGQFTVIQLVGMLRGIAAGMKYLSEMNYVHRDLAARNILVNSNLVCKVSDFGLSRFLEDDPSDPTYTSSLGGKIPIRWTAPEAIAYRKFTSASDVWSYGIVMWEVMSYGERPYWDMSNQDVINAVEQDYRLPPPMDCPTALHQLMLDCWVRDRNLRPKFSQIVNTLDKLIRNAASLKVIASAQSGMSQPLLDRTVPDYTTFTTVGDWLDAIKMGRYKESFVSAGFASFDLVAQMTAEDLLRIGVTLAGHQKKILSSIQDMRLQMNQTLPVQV

In the next experiment the target is T4, AurA (Homo sapiens, UniProt O14965).
T4 sequence (O14965 1-403): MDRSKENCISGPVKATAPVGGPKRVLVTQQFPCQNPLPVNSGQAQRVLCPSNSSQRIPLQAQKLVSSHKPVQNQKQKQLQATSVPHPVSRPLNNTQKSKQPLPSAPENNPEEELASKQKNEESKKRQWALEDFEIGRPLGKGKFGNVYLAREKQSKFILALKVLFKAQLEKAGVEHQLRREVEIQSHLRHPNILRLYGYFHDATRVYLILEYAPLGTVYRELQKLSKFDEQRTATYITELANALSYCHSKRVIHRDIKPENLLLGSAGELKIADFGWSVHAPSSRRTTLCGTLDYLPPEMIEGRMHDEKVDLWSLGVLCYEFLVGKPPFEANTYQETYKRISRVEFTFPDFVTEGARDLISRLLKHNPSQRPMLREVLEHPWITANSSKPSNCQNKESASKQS

SMILES strings stand for the structures. Read-outs that look alike come from different tables or passages of the source.

Sequence of ABL1 (P00519 whole entry): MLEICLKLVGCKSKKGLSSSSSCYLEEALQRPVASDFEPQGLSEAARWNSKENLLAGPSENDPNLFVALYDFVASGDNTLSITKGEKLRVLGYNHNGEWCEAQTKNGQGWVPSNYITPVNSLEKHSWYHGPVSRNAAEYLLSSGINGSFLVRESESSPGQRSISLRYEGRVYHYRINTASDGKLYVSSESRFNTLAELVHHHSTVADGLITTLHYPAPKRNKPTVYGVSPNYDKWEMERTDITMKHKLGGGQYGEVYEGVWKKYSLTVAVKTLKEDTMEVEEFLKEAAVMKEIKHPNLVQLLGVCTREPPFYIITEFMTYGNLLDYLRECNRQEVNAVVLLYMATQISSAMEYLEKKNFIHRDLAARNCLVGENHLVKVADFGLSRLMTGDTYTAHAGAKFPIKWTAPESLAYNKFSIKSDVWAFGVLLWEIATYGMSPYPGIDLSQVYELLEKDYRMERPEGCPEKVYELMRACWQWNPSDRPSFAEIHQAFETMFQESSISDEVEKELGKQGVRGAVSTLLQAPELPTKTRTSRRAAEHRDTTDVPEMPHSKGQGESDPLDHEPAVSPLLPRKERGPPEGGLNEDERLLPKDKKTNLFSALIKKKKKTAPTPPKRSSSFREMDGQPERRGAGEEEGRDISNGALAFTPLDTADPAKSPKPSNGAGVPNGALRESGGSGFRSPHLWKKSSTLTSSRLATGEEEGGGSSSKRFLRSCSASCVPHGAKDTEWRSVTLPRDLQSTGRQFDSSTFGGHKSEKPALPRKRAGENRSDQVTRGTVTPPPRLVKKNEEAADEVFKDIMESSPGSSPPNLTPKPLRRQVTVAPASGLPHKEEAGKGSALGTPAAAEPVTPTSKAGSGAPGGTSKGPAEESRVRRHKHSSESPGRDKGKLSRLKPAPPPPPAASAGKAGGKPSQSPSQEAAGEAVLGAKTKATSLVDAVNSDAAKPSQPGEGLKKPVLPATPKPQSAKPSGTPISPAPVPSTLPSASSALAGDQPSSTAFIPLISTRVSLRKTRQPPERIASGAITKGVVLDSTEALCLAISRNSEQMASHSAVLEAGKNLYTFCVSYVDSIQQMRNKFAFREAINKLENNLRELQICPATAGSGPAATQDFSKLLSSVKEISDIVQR
Sequence of HIPK2 (Q9H2X6 whole entry): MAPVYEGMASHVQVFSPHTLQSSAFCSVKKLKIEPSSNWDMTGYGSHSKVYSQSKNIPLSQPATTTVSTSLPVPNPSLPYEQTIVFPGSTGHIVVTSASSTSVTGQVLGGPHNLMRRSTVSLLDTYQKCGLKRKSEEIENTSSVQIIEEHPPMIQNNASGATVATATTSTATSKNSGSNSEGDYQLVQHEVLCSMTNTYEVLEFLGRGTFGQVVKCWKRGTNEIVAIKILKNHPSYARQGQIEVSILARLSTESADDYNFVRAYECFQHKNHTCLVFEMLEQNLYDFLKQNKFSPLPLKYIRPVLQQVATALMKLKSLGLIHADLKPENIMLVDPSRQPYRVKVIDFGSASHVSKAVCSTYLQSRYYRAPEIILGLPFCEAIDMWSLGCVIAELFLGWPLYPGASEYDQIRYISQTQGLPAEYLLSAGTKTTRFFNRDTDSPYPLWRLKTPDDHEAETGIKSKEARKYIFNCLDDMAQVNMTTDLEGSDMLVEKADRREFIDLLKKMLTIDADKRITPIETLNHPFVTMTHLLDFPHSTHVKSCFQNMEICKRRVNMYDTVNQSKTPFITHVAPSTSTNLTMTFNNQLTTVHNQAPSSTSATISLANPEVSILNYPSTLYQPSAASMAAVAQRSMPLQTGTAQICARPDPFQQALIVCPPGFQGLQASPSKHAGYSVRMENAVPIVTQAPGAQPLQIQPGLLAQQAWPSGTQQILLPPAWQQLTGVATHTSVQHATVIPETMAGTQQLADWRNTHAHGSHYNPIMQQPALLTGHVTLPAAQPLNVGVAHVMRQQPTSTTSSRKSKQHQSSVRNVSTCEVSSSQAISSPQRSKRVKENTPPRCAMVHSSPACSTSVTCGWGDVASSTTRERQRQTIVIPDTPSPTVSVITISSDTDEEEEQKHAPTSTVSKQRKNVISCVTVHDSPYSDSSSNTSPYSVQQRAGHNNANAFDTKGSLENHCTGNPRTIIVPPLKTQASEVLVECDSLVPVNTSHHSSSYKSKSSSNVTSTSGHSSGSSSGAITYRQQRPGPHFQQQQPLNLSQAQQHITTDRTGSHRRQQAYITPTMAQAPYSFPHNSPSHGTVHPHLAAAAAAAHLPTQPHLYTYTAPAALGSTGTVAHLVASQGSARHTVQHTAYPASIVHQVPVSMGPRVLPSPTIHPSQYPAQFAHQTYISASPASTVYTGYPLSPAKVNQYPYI
Sequence of PAK4 (O96013 whole entry): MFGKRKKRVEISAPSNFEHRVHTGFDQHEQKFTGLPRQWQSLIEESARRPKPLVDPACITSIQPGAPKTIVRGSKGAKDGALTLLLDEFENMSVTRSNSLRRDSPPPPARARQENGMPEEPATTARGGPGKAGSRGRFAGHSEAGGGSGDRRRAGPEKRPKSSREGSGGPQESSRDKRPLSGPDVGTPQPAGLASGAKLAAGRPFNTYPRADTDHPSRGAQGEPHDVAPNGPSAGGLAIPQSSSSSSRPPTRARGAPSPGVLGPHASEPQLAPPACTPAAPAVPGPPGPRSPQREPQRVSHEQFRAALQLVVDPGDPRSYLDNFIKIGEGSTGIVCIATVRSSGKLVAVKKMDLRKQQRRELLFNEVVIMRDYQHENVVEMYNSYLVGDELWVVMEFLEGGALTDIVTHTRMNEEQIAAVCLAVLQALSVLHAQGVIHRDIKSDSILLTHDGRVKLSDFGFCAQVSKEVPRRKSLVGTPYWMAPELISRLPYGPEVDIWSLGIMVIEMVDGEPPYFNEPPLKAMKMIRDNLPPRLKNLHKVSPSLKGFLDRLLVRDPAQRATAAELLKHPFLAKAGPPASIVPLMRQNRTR

`CNc1ncc2cc(-c3cc(Cl)ccc3Cl)c(=O)n(CCCCN)c2n1` [compound 8, 8-(4-Aminobutyl)-6-(2,5-dichlorophenyl)-2-(methylamino)pyrido[2,3-d]pyrimidin-7(8H)-one]: the ΔTm at 10 µM on Erk7 (read-out: dTm 8) is 0.3 °C; at DYRK2 (read-out: dTm 8), 0.1 °C; on HIPK2 (read-out: dTm 8) it was 0.7 °C; at EphB3 (read-out: dTm 8), 4.1 °C; at AurA (read-out: dTm 8), 1.9 °C; on ABL1 (read-out: dTm 8) it was 6.2 °C.
As to `CNc1ncc2cc(-c3cc(Br)ccc3Br)c(=O)n(CCCCN)c2n1` [compound 11, 8-(4-Aminobutyl)-6-(2,5-dibromophenyl)-2-(methylamino)pyrido[2,3-d]pyrimidin-7(8H)-one], the ΔTm at 10 µM on Erk7 (read-out: dTm 11) was found to be 0.3 °C; on DYRK2 (read-out: dTm 11), 0 °C; at HIPK2 (read-out: dTm 11) it was 0.8 °C; at EphB3 (read-out: dTm 11), 3 °C; on AurA (read-out: dTm 11), 1.9 °C; at ABL1 (read-out: dTm 11), 4.8 °C. The ΔTm at 10 µM on PAK4 (read-out: dTm 11) came to 1.1 °C.
For the compound `CNc1ncc2cc(-c3cc(C(F)(F)F)ccc3Cl)c(=O)n(CCCCN)c2n1` [compound 9, 8-(4-Aminobutyl)-6-(2-chloro-5-(trifluoromethyl)phenyl)-2-(methylamino)pyrido[2,3-d]pyrimidin-7(8H)-one], the ΔTm at 10 µM at Erk7 (read-out: dTm 9) was found to be 0.1 °C; at DYRK2 (read-out: dTm 9), 0 °C; at HIPK2 (read-out: dTm 9), 0.7 °C; at EphB3 (read-out: dTm 9), 2.3 °C; on AurA (read-out: dTm 9) it was 1.3 °C; at ABL1 (read-out: dTm 9), 2.5 °C. In addition, the ΔTm at 10 µM at PAK4 (read-out: dTm 9) is 0.5 °C.
On to `CNc1ncc2cc(-c3cc(F)c(-c4cccc(C)n4)cc3F)c(=O)n(CCCCN)c2n1` [compound 12, 8-(4-Aminobutyl)-6-(2,5-difluoro-4-(6-methylpyridin-2-yl)phenyl)-2-(methylamino)pyrido[2,3-d]pyrimidin-7(8H)-one], for which the ΔTm at 10 µM is -1.3 °C on Erk7 (read-out: dTm 12); -0.2 °C at DYRK2 (read-out: dTm 12); 0.4 °C on HIPK2 (read-out: dTm 12); 2.5 °C on EphB3 (read-out: dTm 12); -2.4 °C at AurA (read-out: dTm 12); 3.5 °C on ABL1 (read-out: dTm 12). Also, the ΔTm at 10 µM on PAK4 (read-out: dTm 12) was determined as 1.8 °C.
In the case of `CNc1ncc2cc(-c3cc(Cl)ccc3Br)c(=O)n(CCCCN)c2n1` [compound 10, 8-(4-Aminobutyl)-6-(2-bromo-5-chlorophenyl)-2-(methylamino)pyrido[2,3-d]pyrimidin-7(8H)-one], the ΔTm at 10 µM was 0.3 °C at Erk7 (read-out: dTm 10); 0 °C on DYRK2 (read-out: dTm 10); 0.8 °C at HIPK2 (read-out: dTm 10); 4.6 °C on EphB3 (read-out: dTm 10); 2 °C at AurA (read-out: dTm 10); 6.2 °C at ABL1 (read-out: dTm 10). At PAK4 (read-out: dTm 10), the ΔTm at 10 µM was 1.3 °C.
